According to patent US10093642B2, “Multitarget hedgehog pathway inhibitors and uses thereof” (UNIVERSITA' DEGLI STUDI DI SIENA, priority 2013, dated 2018):

What was measured:
[1] = tested on: Hh signaling in mouse cerebellar progenitors; experiment: Hh target mRNA in cerebellar progenitors of 6-day old mice after s.c. injection; assay type: in vivo, CD1 mice; details: 100 μmol/Kg s.c. for 2 days
Description: To assess the in vivo activity of Glabrescione B, we first tested its ability to suppress Hh signaling in 6-day old mouse cerebellar progenitors, considered the cell of origin of MB. 6-day old CD1 mice were randomly divided into two groups (n=6) and injected s.c. with solvent only (2-hydroxypropyl-β-cyclodextrin:ethanol, 3:1) or Glabrescione B in solvent (100 μmol/Kg) for 2 days (2-hydroxypropyl-β-cyclodextrin was purchased from Sigma Aldrich, St. Louis, Mo., USA). Cerebella were collected and mRNA levels were determined by qRT-PCR.

[2] = tested on: ASZ001 BCC allografts; experiment: ASZ001 BCC allograft in NOD/SCID mice; assay type: in vivo; details: 100 μmol/Kg, 18 days
Description: FIG. 18. Glabrescione B inhibits Gli1-dependent BCC tumor growth in vivo. (ASZ001 BCC allografts). (A) Change of tumor volume during Glabrescione B (GlaB) or vehicle (CTR) treatment period (18 days). […] (C) qRT-PCR of Gli1 and Ptch1 mRNA. Shown is the mean±SD of tumor (n=6) for each treatment. *P<0.05 vs CTR.
Therefore, to verify the Glabrescione B efficacy to inhibit Hh-dependent tumor cell growth in vivo, we turned to an allograft model of MB cells. Spontaneous Medulloblastomas from Ptch1^+/− mice were isolated, minced, pipetted to obtain a single-cell suspension and grafted s.c. at the posterior flank of female BALB/c nude mice (nu/nu) (Charles River Laboratories, Lecco, Italy). Tumors were grown until a median size of ˜100 mm^3. Animals were randomly divided into two groups (n=6) and treated with solvent only (2-hydroxypropyl-β-cyclodextrin:ethanol, 3:1) or Glabrescione B in solvent (75 μmol/Kg) for 18 days (2-hydroxypropyl-β-cyclodextrin was purchased from Sigma Aldrich, St. Louis, Mo., USA). 2×10^6 ASZ001 BCC cells were resuspended in an equal volume of 154CF medium and Matrigel (BD Biosciences, Heidelberg, Germany) and injected s.c. at the posterior flank of female NOD/SCID mice (Charles River Laboratories, Lecco, Italy), as previously described (Eberl et al, 2012). […] Tumor volumes change was calculated by the formula length×width×0.5×(length+width) (Lauth et al, 2007). […]

[3] = tested on: ASZ001 basal cell carcinoma cells; experiment: ASZ001 BCC cell growth, cell death and Gli1 mRNA; assay type: cell-based; details: in vitro treatment
Experimental: FIG. 15. Inhibition of Gli-dependent BCC tumor cell growth. ASZ001 BCC cells were treated with Glabrescione B (GlaB) 5 μM or DMSO only (A) or with Glabrescione B 1, 5 and 10 μM (GlaB) or DMSO only (B). After the indicated times, a trypan blue count was performed to determine the growth rate (A) or the percentage of cell death (B). (C) Gli1 mRNA expression levels were determined by qRT-PCR after treatment of ASZ001 BCC cells with Glabrescione B (GlaB) or DMSO only for the indicated times. Results are expressed in arbitrary units as relative quantification normalized with endogenous control β2-microglobulin and HPRT. […] Error bars indicate SD. *P<0.05 vs DMSO.
Total RNA was isolated with Trizol (Invitrogen, Eugene, Or, USA) and reverse transcribed with Superscript II reverse transcriptase and random hexamers (Invitrogen, Eugene, Or, USA). Quantitative real-time PCR (qRT-PCR) analysis of Gli1, Gli2, Ptch1, Ptch2, Nanog, Oct-4, Cyclin D1, Cyclin D2, Nmyc, HIP1, Sfrp1, Bmp2, IGF2, β-2 microglobulin, HPRT, mRNA expression was performed on each cDNA sample using the ABI Prism 7900HT Sequence Detection System employing Assay-on-Demand Reagents (Applied Biosystems, Foster City, Calif., USA). […]

[4] = tested on: cerebellar granule progenitor cells (GCPs); experiment: BrdU incorporation in Shh-treated cerebellar granule cell progenitors; assay type: cell-based, mouse; details: Shh 3 μg/ml, 48 h
Experimental: FIG. 10. Cerebellar granule progenitor cells (GCPs) were treated with Shh (Recombinant mouse Sonic Hedgehog, amino-terminal peptide, 3 μg/ml) and with different concentrations of Glabrescione B, as indicated, for 48 h. Inhibition of cell proliferation was measured as percentage of BrdU incorporation in comparison to DMSO (0.5%, vehicle) treated sample.
A biological assay was performed in cerebellar neural progenitors cells obtained from 4-days-old mice, when they are actively proliferating under Sonic Hedgehog (Shh) stimulus. As expected, treatment of these cells with Shh increased the proliferation rate, as evaluated by BrdU-incorporation assay. […] To further evaluate the antiproliferative effect of Glabrescione B, human MB cell lines D283 were treated with Glabrescione B at different concentrations. […] The biomolecule was active, as shown by the growth rate inhibition (70-95%).
Another experiment to assess whether Glabrescione B also regulates Hh pathway in a physiological context was carried out in cerebellar granule cells precursors (GCPs) isolated from 4-days-old mice according to established protocols (Wechsler-Reya and Scott, 1999). Briefly, cerebella were removed aseptically, cut into small pieces, and incubated at room temperature for 15 min in digestion buffer [Dulbecco's PBS (Invitrogen, Gaithersburg, Md.) with 0.1% trypsin, 0.2% EDTA, and 100 μg/ml DNase]. […]

`COc1cc(OC)c2c(=O)c(-c3ccc(OCC=C(C)C)c(OCC=C(C)C)c3)coc2c1` [Glabrescione B, 3-(3′,4′-bis(3-methylbut-2-enyloxy)phenyl)-5,7-dimethoxy-4H-chromen-4-one] was tested, and the “cerebellar levels of Hh target genes (mRNA)” value [1] was “reduced significantly”, the “Gli1 mRNA levels in tumors” value [2] was “significant reduction” and the tumor growth [2] was “significant reduction of tumor growth”. The BCC cell proliferation [3] was “impaired”, the “Gli1 mRNA in BCC cells” value ([3]; qRT-PCR) was “suppression of Gli1 mRNA” and the “Shh-induced proliferation (BrdU incorporation)” value [4] was “antagonized this effect”.
